Values quoted from earlier work, collected in patent US20120135104A1, “Enhanced Absorption of Omega Fatty Acid Oils” (priority 2010, published 2012).

Settings: single emulsifier

HLB value: about 15
Substance: polyoxyethylene sorbitan monooleate
